From patent publication US20170216277A1, “[…] USE OF […] […] EFFECTS” (TREVI THERAPEUTICS, INC., priority 2016, published 2017)

Key:
[1] = Heart rate, TR01, hemodialysis patients; assay type: in vivo, human
Protocol: (§1) The presence and extent of a possible aquaretic effect was evaluated by measuring urine output (healthy subjects only) and serum sodium as well as blood pressure and heart rate, as markers of potential volume depletion.
(§2) In the dialysis patients, all vital sign measurements and blood samples were collected pre-dialysis. On days of study drug administration, vital signs were measured at 0 (prior to the morning dose), 1.5, 4.5, and 8 hours after the morning dose and 2 hours after the evening meal, coinciding with administration of the PM dose. Blood pressure was also measured at 6 and 10 hours post dinner. On Day −1 (pre-treatment) vital sign measurements were obtained in the morning and evening at approximately the same time that study drug was administered on subsequent treatment days.
(§3) Blood pressure and heart rate were measured at multiple time points on Days −1 through 14 or 17.

[2] = Urine output over 24 hours, Phase I trial TR01, healthy subjects (Cohort 2); conditions: five 24-hour collections, progressively higher doses
Protocol: (§4) The presence and extent of a possible aquaretic effect was evaluated by measuring urine output (healthy subjects only) and serum sodium as well as blood pressure and heart rate, as markers of potential volume depletion. Urine specific gravity was also analyzed to assess for reduced urine osmolarity (resulting in a decrease in urine specific gravity) due to free water excretion.

[3] = Overall evaluation of aquaretic effect, TR01; assay type: in vivo, human
Protocol: as §4

[4] = Heart rate, TR01, healthy subjects; assay type: in vivo, human
Protocol: as §1, §2, §3

[5] = Serum sodium, TR01, healthy subjects (Cohort 2); assay type: in vivo, human
[6] = Blood pressure (diastolic and systolic), TR01, hemodialysis patients
Protocol: as §1, §2, §3

[7] = Blood pressure (diastolic and systolic), TR01, healthy subjects
Protocol: as §1, §2, §3

[8] = Serum sodium (pre-dialysis), TR01, hemodialysis patients (Cohort 1); assay type: in vivo, human
[9] = oral aqueous solution; fasted conditions, across studies
[10] = Adverse event reporting of increased urine output, TR01, hemodialysis patients; assay type: in vivo, human; conditions: dialysis patients in TR01; urine collection not performed
Excerpt: Based on historical data, the dialysis patients in TR01 had limited to no residual renal function.

17-(cyclobutylmethyl)-4,5α-epoxymorphinian-3,6α,14-triol, hydrochloride [nalbuphine]
Dose or time-dependent mean heart rate increase [1]: no evidence of a dose or time-dependent mean heart rate increase | Increased urine output related to dose or duration of time on nalbuphine [2]: no evidence of increased urine output | Aquaretic effect ([3]; dialysis patients, doses up to 240 mg BID): no evidence of an aquaretic effect | Aquaretic effect ([3]; healthy subjects, doses up to 180 mg BID): no evidence of an aquaretic effect | Dose or time-dependent mean heart rate increase [4]: no evidence of a dose or time-dependent mean heart rate increase | Hypernatremia during nalbuphine treatment [5]: No healthy subject | Trend of rising serum sodium during the treatment period [5]: nor was there a trend of rising serum sodium | Systolic blood pressure range throughout the study ([6]; dialysis patients): 70-199 mmHg | Dose-related reductions in blood pressure ([6]; hemodialysis patients, Days −1 through 14 or 17): no consistent dose-related reductions in blood pressure | Hypotension ([6]; hemodialysis patients, throughout the study): no subjects or patients developed hypotension | Systolic blood pressure range throughout the study [7]: 78-148 mmHg | Dose-related reductions in blood pressure ([7]; Days −1 through 14): no consistent dose-related reductions in blood pressure | Hypotension ([7]; throughout the study): no subjects or patients developed hypotension | Hypernatremia during nalbuphine treatment [8]: No healthy subject (Table 5) or hemodialysis patient | Trend of rising serum sodium during the treatment period [8]: nor was there a trend of rising serum sodium | Median Tmax [9]: 30 to 60 min | Adverse event of increased urine output [10]: no adverse event of increased urine output was reported
